Key:
[1] = Stability in solution at room temperature, judged by appearance and taste; type: physicochemical; details: room temperature (about 50 to 90 degrees F.); judged by appearance (color) and taste
Description: Without wishing to be bound by theory, it is believed that methyl esters of pyruvic acid are more susceptible to hydrolysis in aqueous solution than are corresponding ethyl esters, which hydrolysis results in the production of pyruvic acid. Pyruvic acid, and the anion thereof, can then react by mechanisms well known in the art, to form a plethora of higher molecular compounds.

[2] = Gastric reflux (heartburn) in the taste assessment experiment; type: in vivo, human; details: panel of 10 individuals; about 30 ml liquid composition, oral
Protocol: (§1) A panel of 10 individuals ingested a liquid composition (about 30 ml) at room temperature comprising ethylpyruvate (about 1 weight-percent) to provide a taste assessment. The panel was additionally provided a corresponding liquid composition of methylpyruvate (i.e., methyl ester of pyruvic acid) for comparative tasting. […] Without wishing to be bound by theory, it is believed that the sour taste associated with methylpyruvate results from hydrolysis of methylpyruvate within the sample to pyruvic acid, with the associated source taste of an acid. In contrast, the taste associated with ethylpyruvate appears to reflect a lack of hydrolysis to pyruvic acid in the sample.
In the taste assessment experiment (Example 2), gastric reflux (i.e., “heartburn”) was a considerable problem (i.e., 5 of 10 individuals reporting such) with methylpyruvate, but none reporting similar reaction with ethylpyruvate.

[3] = Mood enhancement before and after ingestion in the taste assessment experiment; type: in vivo, human; details: about 1 weight-percent
Protocol: as §1
In the taste assessment experiment (Example 2), mood was assessed before and after ingestion of the liquid composition comprising ethylpyruvate. […] This mood enhancement commenced at between 5 and 15 minutes and lasted over 6 hours. In one case, the individual stated that the usual afternoon cup of coffee would not be necessary that day due to the ingestion of the composition.

[4] = Post-surgical oral ingestion by a patient with gastrointestinal inflammation; type: in vivo, human; details: about 3x500 mL per day
Protocol: The patient had developed gastrointestinal inflammation and could not tolerate food by mouth for several days post-operative. Furthermore, bowel movements were frequent, watery and bloody, and were accompanied by lower abdominal pain. The patient self administered oral ethylpyruvate (about 3×500 mL per day daily for 1 week of an ethylpyruvate solution in commercial bottled spring water at 0.06 weight-percent ethylpyruvate). Within 3 hours of the initial dosing, persistent pain, hyperactive bowel and diarrhea resolved. The patient additionally reported an improved mood following oral ingestion of ethylpyruvate.

[5] = Athlete oral ingestion before and during daily workouts; type: in vivo, human; details: 12 athletes, 4x500 mL per day, about 0.06 weight-percent in water, four days
Protocol: A group of 12 athletes (19-22 years of age) self-administered oral ethylpyruvate in solution (4×500 mL ingested per day of a solution of about 0.06 weight-percent ethylpyruvate in water) before and during daily workouts (approximately 2 hours duration) for four days. The athletes having ingested oral ethylpyruvate reported less fatigue at the end of each workout, and similar favorable reports continued each day for the four days of practice.

stability in solution versus the methyl ester of pyruvic acid [1]: higher stability
individuals reporting gastric reflux (heartburn) [2]: none
SMILES: CCOC(=O)C(C)=O [ethylpyruvate]
duration of mood enhancement ([3]; after ingestion of about 30 ml): over 6 hours
mood after ingestion ([3]; each of 10 individuals, about 30 ml, oral): increase in feelings of well-being and energy
time from initial dosing to resolution of persistent pain, hyperactive bowel and diarrhea ([4]; one patient after surgery and radiation for gastrointestinal carcinoma, 0.06 weight-percent in spring water): ≤ 3 h
mood reported by the patient ([4]; one patient, 0.06 weight-percent, 1 week): improved mood
performance in high-activity training regimens (wind sprints) versus sessions prior to ingestion ([5]; each subject): better performance
fatigue at the end of each workout [5]: less fatigue
